Data: patent US20170035845A1, “Compositions and Methods for Inhibiting Pro-Inflammatory Cytokine Gene Expression” (The Regents of the University of California, priority 2015, published 2017)

Tests used:
NF-κB = NF-κB activity assay (SEAP reporter, Quantiblue) in THP-1 Dual cells; format: cell-based, human
Description: (§1) One ml aliquots of PMA-differentiated THP-1 Dual cells (3.3×10^5 cells/nil) in 24 well tissue culture plates were starved for 1 day in complete medium with 1% HI FBS as described above. For experiments with S7 peptide, 0.5 ml cultures in 48 well plates were used. Fresh medium containing 1% HI FBS was added to the cells and after 2 hours cells were stimulated with 100 ng/ml LPS or 25 ng/ml Pam3CSK4 in the presence of RTD-1 or 0.01% acetic acid (HOAc, vehicle). In some experiments cells were pre-incubated with marimastat, Ly294002 or vehicle for 1 hour prior to addition of LPS and/or RTD-1 (SEQ ID NO. 1). Following overnight incubation, medium was clarified by centrifugation and SEAP activity was determined using Quantiblue reagent at 37° C. and measurement of absorbance at 625 nm. To test the effect of RTD-1 on TLR9-dependent NF-κB activation, 2×10^5 HEK-Blue™ hTLR9 cells/ml were cultured for 1 day in 24 well plates and stimulated overnight with ODN2006 with or without RTD-1. Medium was harvested and SEAP activity was assayed using Quantiblue™ as above. NF-κB activation was defined as fold stimulation of SEAP activity with respect to control cells.

primary human monocytes [1] = assay: Immunoblot analyses of primary human monocyte extracts; format: cell-based
Description: EDTA-anticoagulated blood was incubated with human monocyte enrichment cocktail (Stem Cell Technologies, Vancouver, BC, Canada) for 20 minutes and layered on Ficoll Paque™ in a Sepmate™ 50 tube (Stem Cell Tech). The cells were centrifuged at 1200×g for 10 minutes and the monocyte containing layer of cells was isolated, washed with PBS containing 2% HI FBS and 1 mM EDTA.
(§2) Differentiated THP-1 cells (˜8×10^5 cells/2.5 ml medium) were starved in complete medium containing […] for 1 day as above, and fresh 2.5 ml RPMI 1640+1% FBS+P/S was added for 2 hours. For experiments with fresh monocytes, cells (>80% CD14+) were resuspended (˜10^6 cells/nil) in monocyte attachment medium (Promocell, Heidelberg, Germany) in wells of a 12 well plate for 2 hours at 37° C. in 5% CO2. The cells were then washed two times with RPMI medium containing 1% HI FBS and suspended overnight in RPMI medium containing 1% HI FBS. Cells were stimulated with agonists with or without RTD-1 (SEQ ID NO. 1) as described in the figure legends after which cells were washed with PBS and extracts were prepared in cell lysis buffer+1 mM PMSF. Protein content was determined using the BCA method (BioRad, San Diego, Calif.) and extracts resolved on SDS-tricine gels and transferred to nitrocellulose membrane. The membranes were probed with the indicated antibodies and developed using anti-mouse or anti-rabbit HRP conjugated secondary antibodies and detected by chemiluminescence. A phosphoprotein antibody array (Phospho-MAPK™; R&D systems Minneapolis, Minn.) was used to analyze activation of phosphoprotein kinases. Differentiated THP-1 cells (1.6×10^6 cells) were treated with 100 ng/ml LPS, 10 μg/ml RTD-1 (SEQ ID NO. 1), 100 ng/ml LPS+10 μg/ml RTD-1, or vehicle for 30 minutes. Arrays were probed with 200 μg of cell extract protein and chemiluminescence of spots from arrays or bands from western blotting was quantified using NIH ImageJ software, background subtracted, normalized and plotted.

whole blood = assay: TNF-α secretion by E. coli stimulated whole blood; format: cell-based
inflammatory cytokines = conditions: mouse models; cited from earlier work
THP-1 cells [2] = assay: Phospho-MAPK phosphoprotein antibody array, THP-1 cells; format: cell-based, human
Description: as §2

NF-κB p65 = assay: NF-κB DNA-binding activity (p65 ELISA) in THP-1 nuclear extracts; format: cell-based, human
Description: Nuclear extracts were prepared (nuclear extraction kit; Cayman Chemical Co., Ann Arbor, Mich.) from differentiated THP-1 cells treated for 30 minutes with vehicle, LPS (100 ng/ml) or TNF-α (2 ng/ml) in the presence or absence of 10 μg/ml RTD-1 (SEQ ID NO. 1). NF-κB DNA binding was quantified by p65 ELISA (Cayman Chemical Co.). Non-specific DNA-binding, positive control extract and positive control extract treated with competitor DNA control included with the ELISA were used to confirm specificity of DNA-binding.

THP-1 macrophages = assay: Cytokine secretion ELISA, LPS-stimulated differentiated THP-1 cells; format: cell-based, human
Description: (§3) THP-1 monocytes (ATCC, Manassas, Va.) were cultured in RPMI 1640+10% FBS and penicillin/streptomycin (P/S). THP-1 Dual cells (Invivogen, San Diego, Calif.) which express the NF-κB reporter, secreted embryonic alkaline phosphatase (SEAP), were grown in RPMI 1640+10% HI-FBS and antibiotics. THP-1 cell differentiation was induced by treatment of cells (˜3.3×10^5 cells/ml) with 100 nM PMA and cultured for 2 days. HEK-Blue™ hTLR9 cells (Invivogen) were grown in DMEM medium containing 10% HI-FBS, P/S and normocin. Cells were cultured at 37° C. in 5% CO2. Cytokine assays. PMA-differentiated THP-1 cells (˜8×10^5 cells) cultured in 6-well plates were washed twice with complete medium and grown in fresh medium containing 1% FBS for 24 hours. Cells were washed twice with fresh medium and incubated for 2 hours prior to further manipulation. Cells were stimulated with 100 ng/ml LPS in the presence or absence of 10 μg/ml RTD-1 or vehicle (0.01% acetic acid) for 2 hours. In some experiments, cells were first incubated for 1 hour with 10 μg/ml of marimastat or vehicle (DMSO), after which LPS and/or RTD-1 were added and incubated for 2 hours as above. Peripheral blood CD14+ monocytes (Lonza, Walkersville, Md.) were thawed, rinsed with RPMI 1640 containing 10% HI FBS, P/S and normocin and then resuspended in RPMI 1640 containing 1% HI FBS plus antibiotics as above (10^6 cells/nil) for 2 hours. The cells were then stimulated for 4 hours as described in the legend. Medium was collected, clarified by centrifugation first at 250×g for 8 minutes and then at 5000×g for 5 minutes. TNF-α, IL-1β and IL-8 were quantified by ELISA (Life Technologies, Carlsbad, Calif.).

[3] = test system: peripheral blood leukocytes; assay: Cytokine secretion by peripheral blood leukocytes stimulated with TLR agonists; format: cell-based, human; conditions: stimulated by agonists of TLRs 2, 4, 5, and 8
[4] = test system: TLR9-dependent NF-κB activation; assay: TLR9-dependent NF-κB activation (SEAP) in HEK-Blue hTLR9 cells; format: cell-based, human; conditions: ODN2006, RTD-1 10 μg/ml
Description: as §1

THP-1 cells [5] = assay: Immunoblot analyses of THP-1 cell extracts; format: cell-based, human
Description: as §2

THP-1 cells [6] = assay: Real time quantitative PCR of cytokine mRNA, LPS-stimulated THP-1 cells; format: cell-based, human
Description: Differentiated THP-1 cells were treated with LPS and RTD-1 for 2 hours as above, washed with PBS and RNA was isolated using an RNA mini kit (Zymo Research, Irvine, Calif.) or with RNeasy mini kit (Qiagen, Valencia, Calif.). RNA integrity was confirmed on agarose gels and RNA samples with A260/280 and A260/230 ratios ≧1.7 were used to generate cDNA. Briefly, 400 ng RNA was incubated with genomic DNA (gDNA) elimination (GE) buffer for 5 minutes at […]. and reverse transcribed using the RT^2 first strand synthesis kit (Qiagen). Custom PCR arrays (SA Biosciences, Frederick, Md.) containing human genes of interest and controls (for reverse transcriptase and PCR efficiency, RTC and PPC respectively) were used for simultaneous real time PCR analysis. Master mix containing cDNA and RT^2 SYBR Green™ was added to array wells. PCR cycling parameters were: 1 cycle 10 minutes at 95° C., 40 cycles of 15 seconds at 95° C., 1 minute at 60° C. on a BioRad C1000 Thermal Cycler equipped with a CFX96 real time system. Melting curve analysis confirmed a single amplicon with CT PPC=20±2 and ACT (RTC-PPC)<5 for all samples. The ACTB gene was used for normalization of gene expression and fold stimulation (compared to untreated cells) was calculated using the ΔΔCT method. Absence of gDNA in cDNA samples (CT>35) was confirmed using a human gDNA primer (SA Biosciences).

[7] = test system: peripheral blood leukocytes; conditions: human peripheral blood leukocytes, diverse TLR agonists (Schaal et al 2012); cited from earlier work
primary human monocytes [8] = assay: Cytokine secretion ELISA, LPS-stimulated primary human monocytes; format: cell-based; conditions: LPS 20 ng/ml, 4 hours, RTD-1 10 μg/ml
Description: as §3

[9] = LPS 100 ng/ml, RTD-1 10 μg/ml, 30 minutes
[10] = LPS 100 ng/ml + RTD-1 10 μg/ml, 30 minutes
[11] = LPS 100 ng/ml, 2 hours, RTD-1 10 μg/ml, THP-1 macrophages
[12] = LPS 100 ng/ml, comparison RTD-1 versus marimastat
[13] = LPS 100 ng/ml, RTD-1 10 μg/ml, 2 hours

HNP-1: human neutrophil α-defensin HNP-1 purified from neutrophils [reference compound]
inhibition of NF-κB activity (NF-κB; LPS 100 ng/ml, equimolar concentrations used in place of RTD-1): no inhibition

RTD-1: rhesus theta-defensin 1, macrocyclic tri-disulfide θ-defensin peptide, SEQ ID NO. 1, synthetic (cyclo(GFCRCLCRRGVCRCICTR); disulfide (positions not given here); not fully specified (bridges); also: three disulfides, places not given here; listed as Macaca mulatta)
degradation of IκBα in LPS stimulated monocytes (primary human monocytes [1]; [9]): reduced
p38 MAP kinase phosphorylation in LPS stimulated monocytes (primary human monocytes [1]; [9]): inhibited
degradation of IκBα (primary human monocytes [1]; RTD-1 alone, monocytes): did not induce
phosphorylation of Akt (primary human monocytes [1]; monocytes treated with LPS and RTD-1 or RTD-1 alone, compared to control cells): increased phosphorylation
p38 MAP kinase phosphorylation (primary human monocytes [1]; peptide alone, monocytes): no effect
speed of blockade of TNF-α secretion (whole blood): extremely rapid
inflammatory cytokines, including TNF-α, IL-1β and several chemokines (inflammatory cytokines): reduce inflammatory cytokines
LPS-induced phosphorylation of CREB (THP-1 cells [2]; [10]): to baseline levels
LPS-induced phosphorylation of ERK2 (THP-1 cells [2]; [10]): to baseline levels
LPS-induced phosphorylation of H5P27 (THP-1 cells [2]; [10]): to baseline levels
LPS-induced phosphorylation of JNK2 (THP-1 cells [2]; [10]): to baseline levels
LPS-induced phosphorylation of p38α (THP-1 cells [2]; [10]): to baseline levels
LPS-induced phosphorylation of p38γ (THP-1 cells [2]; [10]): to baseline levels
phosphorylation of CREB, ERK2, H5P27, JNK2, p38α and p38γ (THP-1 cells [2]; RTD-1 alone): did not suppress
phosphorylation of Akt1 (THP-1 cells [2]; RTD-1 alone or in combination with LPS): selectively stimulated
baseline phosphorylation of other kinase targets (THP-1 cells [2]; RTD-1 alone, otherwise untreated cells): did not increase
NF-κB DNA binding, LPS-stimulated (NF-κB p65; [9]): to baseline levels
translocation of NF-κB p65 to the nucleus (NF-κB p65; LPS stimulated macrophages, Western blot of nuclear extracts): inhibit translocation
suppression of TNF-α-stimulated NF-κB DNA binding (NF-κB p65; TNF-α 2 ng/ml, RTD-1 10 μg/ml, 30 minutes, compared with TNF-α alone): ~35%
suppression of secretion of IL-1β (THP-1 macrophages; [11]): > 90%
suppression of secretion of IL-8 (THP-1 macrophages; [11]): > 90%
suppression of secretion of TNF-α (THP-1 macrophages; [11]): > 90%
release of TNF-α by LPS-stimulated THP-1 cells (THP-1 macrophages; [12]): blocked both cytokines effectively
secretion of IL-1β by LPS-stimulated THP-1 cells (THP-1 macrophages; [12]): blocked both cytokines effectively
effect on THP-1 cytokine secretion (THP-1 macrophages; RTD-1 alone, no LPS): no effect
secretion of several inflammatory cytokines [3]: suppressed secretion
suppression of ODN2006-mediated NF-κB activation [4]: to baseline levels
JNK1/2 kinase phosphorylation (THP-1 cells [5]; LPS 100 ng/ml, RTD-1 10 μg/ml): inhibition
degradation of IκBα in LPS stimulated macrophages (THP-1 cells [5]; LPS 100 ng/ml, RTD-1 10 μg/ml): effective in blocking
p38 MAP kinase phosphorylation (THP-1 cells [5]; LPS 100 ng/ml, RTD-1 10 μg/ml): inhibition
P-Akt levels remained elevated (THP-1 cells [5]; RTD-1 10 μg/ml alone, for at least 4 hours): ~2.5 fold
increase in P-Akt (THP-1 cells [5]; RTD-1 10 μg/ml alone, within 10 minutes of peptide treatment): 6.5 fold
IκBα levels and phosphorylation of p38 MAP and JNK1/2 kinases (THP-1 cells [5]; RTD-1 alone): no effect
LPS-induced mRNA expression of CCL3 (THP-1 cells [6]; [13]): markedly inhibited
LPS-induced mRNA expression of CCL4 (THP-1 cells [6]; [13]): markedly inhibited
LPS-induced mRNA expression of IL-1β (THP-1 cells [6]; [13]): markedly inhibited
LPS-induced mRNA expression of IL-8 (THP-1 cells [6]; [13]): markedly inhibited
LPS-induced mRNA expression of TNF-α (THP-1 cells [6]; [13]): markedly inhibited
expression of GAPDH (THP-1 cells [6]; addition of RTD-1): no effect
cytokine mRNA expression (THP-1 cells [6]; peptide alone, no LPS): no effect
dose dependence of inhibition of NF-κB activation (NF-κB; LPS 100 ng/ml, RTD-1 5 and 10 μg/ml): dose dependent
LPS-stimulated NF-κB activation (NF-κB; LPS 100 ng/ml, comparison RTD-1 versus marimastat, RTD-1 in the presence or absence of marimastat): potent inhibitor
suppression of LPS-induced NF-κB activation (NF-κB; LPS 100 ng/ml, simultaneous RTD-1 10 μg/ml, THP-1 Dual cells): ~70%
direct effect on the enzymatic activity of the SEAP reporter (NF-κB; LPS/RTD-1 control): no direct effect
inhibition of Pam3CSK4-induced NF-κB activity (NF-κB; Pam3CSK4 25 ng/ml, RTD-1 10 μg/ml): ~70%
effect on NF-κB activation (NF-κB; RTD-1 alone, no LPS): no effect
inhibition of cytokine secretion [7]: potent inhibitor
suppression of secretion of IL-1β (primary human monocytes [8]): > 90%
suppression of secretion of IL-8 (primary human monocytes [8]): > 90%
suppression of secretion of TNF-α (primary human monocytes [8]): > 90%
binding to LPS (Binding to LPS): binds inefficiently
